Test [1] has as its target T1, LlpABW (Pseudomonas putida, UniProt Q8GEJ9).
T1 construct: gene llpA; full-length, N-terminal His6 tag (pET28a, pCMPG6056), E. coli BL21(DE3); no signal peptide; N-domain Arg4-Pro135, C-domain Ala136-Gln253, hairpin Pro254-His275
The test can be described thus: ITC. Type of test: binding.

In test [2] the target is T2, LlpABW (Pseudomonas putida, UniProt Q8GEJ9, V208Y).
T2 construct: gene llpA; full-length, N-terminal His6 tag (pET28a, pCMPG6056), E. coli BL21(DE3); no signal peptide; N-domain Arg4-Pro135, C-domain Ala136-Gln253, hairpin Pro254-His275
T2 sequence (Q8GEJ9 1-276, stated change not applied): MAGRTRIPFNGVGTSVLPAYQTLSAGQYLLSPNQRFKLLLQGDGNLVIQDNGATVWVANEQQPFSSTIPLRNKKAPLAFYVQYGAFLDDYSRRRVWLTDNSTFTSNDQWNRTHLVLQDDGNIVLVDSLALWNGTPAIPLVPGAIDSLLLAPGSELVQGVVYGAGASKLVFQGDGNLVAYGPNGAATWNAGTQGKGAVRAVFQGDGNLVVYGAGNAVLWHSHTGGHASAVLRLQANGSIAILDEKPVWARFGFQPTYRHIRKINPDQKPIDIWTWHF
The experiment in a line: ITC. The class given is binding.

Where [3] appears, read: bis-TRIS propane 20 mM, 200 mM NaCl, pH 7.0, 25°C, single-site fit n = 1, site III^C.

The source of these data is article PMC3585409, “Structural Determinants for Activity and Specificity of the Bacterial Toxin LlpA” (PLoS Pathogens, 2013).

Like-named read-outs stand apart in the source and are kept apart here.

T1 sequence (Q8GEJ9 1-276): as the sequence (Q8GEJ9 1-276, stated change not applied) above

In the case of `OC[C@H]1O[C@H](OC[C@H]2OC(O)[C@@H](O)[C@@H](O[C@H]3O[C@H](CO)[C@@H](O)[C@H](O)[C@@H]3O)[C@@H]2O)[C@@H](O)[C@@H](O)[C@@H]1O` (some centres unmarked) [Manα(1–3)[Manα(1–6)]Man], the Kd at LlpABW [1] (setting [3]) is 10.1 mM.
`OC[C@H]1O[C@H](O[C@H]2[C@H](O)[C@@H](CO)OC(O)[C@H]2O)[C@@H](O)[C@@H](O)[C@@H]1O` (some centres unmarked) [Manα(1–3)Man]: the Kd was 18.2 mM at LlpABW [1] (setting [3]) and 23 mM on LlpABW [2] (setting [3]).
For the molecule `CO[C@H]1O[C@H](CO)[C@@H](O)[C@H](O)[C@@H]1O` [methyl-α-D-mannopyranoside], the Kd at LlpABW [1] (read-out: Kd) stood at 45.9 mM; on LlpABW [2] (read-out: Kd), 58.8 mM.
As to `OC[C@H]1O[C@H](O[C@@H]2C(O)O[C@H](CO)[C@@H](O)[C@@H]2O)[C@@H](O)[C@@H](O)[C@@H]1O` (some centres unmarked) [Manα(1–2)Man], the Kd at LlpABW [1] (setting [3]) is 42.4 mM.
The same measure, in the same setting: next, `CC(=O)N[C@H]1[C@H](O[C@@H]2[C@@H](OC[C@H]3OC(O)[C@@H](O)[C@@H](O[C@H]4O[C@H](CO)[C@@H](O)[C@H](O)[C@@H]4O[C@@H]4O[C@H](CO)[C@@H](O)[C@H](O)[C@H]4NC(C)=O)[C@@H]3O)O[C@H](CO)[C@@H](O)[C@@H]2O)O[C@H](CO)[C@@H](O)[C@@H]1O` (some centres unmarked) [GlcNAcβ(1–2)Manα(1–3)[GlcNAcβ(1–2)Manα(1–6)]Man]: 2.1 mM.
Still for that read-out and setting: next, `OC[C@H]1O[C@H](OC[C@H]2OC(O)[C@@H](O)[C@@H](O)[C@@H]2O)[C@@H](O)[C@@H](O)[C@@H]1O` (some centres unmarked) [Manα(1–6)Man]: 17.2 mM.
